Measurements from the supplement of paper PMC10290057.
Counter-ions that a name gives are not always drawn.

Tested on: HCT116
Experiment: efficacy (fitted maximal change in viability relative to DMSO control); higher = less cytotoxic (negative = loss of viability)
Details: 48 h
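Note: Luminescence-based viability readout, five doses per compound, normalized against on-plate DMSO and empty-well controls, followed by dose-response curve fitting for every drug.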

Structure (SMILES): CC1(C)CN(C(=O)c2ccc(-c3cccc4nc(NC(=O)C5CC5)nn34)cc2)C1 [Solcitinib]
- efficacy: -18.3%

Structure (SMILES): CC(C)NCC(O)c1ccc(N[S+](C)(=O)[O-])cc1 (stereo not drawn) [Sotalol]
- efficacy: -17.6%

Structure (SMILES): C[C@H]1CN(C[C@@H](C)N1)C2=C(F)C3=C(C(=C2F)N)C(=O)\C(=C/N3C4CC4)C(O)=O [Sparfloxacin]
- efficacy: -10.7%

Structure (SMILES): C[C@]12Cc3cn[nH]c3C[C@@H]1CC[C@@H]1[C@@H]2CC[C@@]2(C)[C@H]1CC[C@]2(C)O [Stanozolol]
- efficacy: -19.3%

Structure (SMILES): CC[C@H](/C=C/[C@@H](C)[C@H]1CC[C@H]2[C@@H]3CC=C4C[C@@H](O)CC[C@]4(C)[C@H]3CC[C@]12C)C(C)C [Stigmasterol]
- efficacy: 11.5%

Structure (SMILES): CN(N=O)C(=O)N[C@@H]1[C@@H](O)[C@H](O)[C@@H](CO)O[C@@H]1O [Streptozocin]
- efficacy: -15.5%

Structure (SMILES): N#Cc1c(N(CC(=O)[O-])CC(=O)[O-])sc(C(=O)[O-])c1CC(=O)[O-] [Strontium Ranelate]
- efficacy: -15.5%

Structure (SMILES): Cc1nnc(N[S+](=O)([O-])c2ccc(N)cc2)s1 [Sulfamethizole]
- efficacy: -10.7%

Structure (SMILES): O=C(O)c1cc(/N=N/c2ccc(S(=O)(=O)Nc3ccccn3)cc2)ccc1O [Sulfasalazine]
- efficacy: 8.3%

Structure (SMILES): CC1=C(CC(=O)O)c2cc(F)ccc2/C1=C\c1ccc([S+](C)[O-])cc1 (stereo not drawn) [Sulindac]
- efficacy: -20.4%

Structure (SMILES): CN[C@@H]1Cc2cccc3[nH]c(=O)n(c23)C1 [Sumanirole maleate]
- efficacy: -12.4%

Structure (SMILES): CCOCC(O)COc1ccc(NC(=O)CC[S+](C)C)cc1 (stereo not drawn) [Suplatast tosylate]
- efficacy: -20.9%

Structure (SMILES): Cc1ccc(C(=O)Nc2ccc([S+](=O)([O-])O)c3cc([S+](=O)([O-])O)cc([S+](=O)([O-])O)c23)cc1NC(=O)c1cccc(NC(=O)Nc2cccc(C(=O)Nc3cc(C(=O)Nc4ccc([S+](=O)([O-])O)c5cc([S+](=O)([O-])O)cc([S+](=O)([O-])O)c45)ccc3C)c2)c1 [Suramin sodium]
- efficacy: -20.9%

Structure (SMILES): CNCC(O)c1ccc(O)cc1 (stereo not drawn) [Synephrine]
- efficacy: -16.7%

Structure (SMILES): CCOC(=O)C1=CCCCC1[S+](=O)([O-])Nc1ccc(F)cc1Cl (stereo not drawn) [TAK-242]
- efficacy: -34.7%

Structure (SMILES): Cn1cc(-c2nc(N[C@@H]3CCCC[C@@H]3N)c(F)c3c2C(=O)NC3)cn1 [TAK-659]
- efficacy: -31.1%

Structure (SMILES): CN1C(=O)/C(=C(NC2=CC=C(I)C=C2F)\C3=C1\N=C/N(C[C@@H](O)CO)C3=O)F [TAK-733]
- efficacy: -73.1%

Structure (SMILES): C[N]1C2=C(SC(=C2)[S+](C)[O-])C\3=C1C(=O)N(CC4=CC(=CC=C4)N)\N=C3 (stereo not drawn) [TEPP-46]
- efficacy: 21.5%

Structure (SMILES): C[C@@H]1C\C2=C(CCC(=O)C2)/[C@H]3CC[C@@]4(C)[C@@H](CC[C@@]4(O)C#C)[C@H]13 [TIBOLONE]
- efficacy: -7.38%

Structure (SMILES): O=C(COCC(=O)N1CCN(C(c2ccccc2)c2ccccc2)CC1)Nc1ccc(Cl)cc1C(=O)O [TM-5275]
- efficacy: 6.23%

Structure (SMILES): CC(C)(CNC(=O)c1cccc(-c2noc(C(F)(F)F)n2)c1)c1coc(-c2ccccc2)n1 [TMP-195]
- efficacy: -21.4%

Structure (SMILES): COC1=CC=C(C=C1)C(=O)C2CCN(CC2)CC(=O)N(CC3CC3)C\C4=N\C5=C(\COCC5)C(=O)N4 [TNKS-656]
- efficacy: -13.6%

Structure (SMILES): Nc1c2c(nc3ccccc13)CCCC2 [Tacrine hydrochloride]
- efficacy: -50.9%

Structure (SMILES): CN(C(=O)c1ccc(F)cc1C(F)(F)F)C1CCN(c2nnc(-c3ccnn3C)c3ccccc23)CC1 [Taladegib]
- efficacy: -25.6%

Structure (SMILES): C[C@@H]1CN(Cc2ccc(F)cc2)[C@@H](C)CN1C(=O)c1cc2c(C(=O)C(=O)N(C)C)cn(C)c2cc1Cl [Talmapimod]
- efficacy: -32.8%

Structure (SMILES): Cc1coc2c1C(=O)C(=O)c1c-2ccc2c1CCCC2(C)C [Tanshinone IIA]
- efficacy: -14.6%

Structure (SMILES): COc1cc2c(cc1OC)CN(CCc1ccc(NC(=O)c3cc(OC)c(OC)cc3NC(=O)c3cnc4ccccc4c3)cc1)CC2 [Tariquidar]
- efficacy: -11.3%

Structure (SMILES): COC1=CC=CC2=C1C(=C(/C(=O)N(C)C3=CC=C(C=C3)C(F)(F)F)C(=O)N2C)/O [Tasquinimod]
- efficacy: -6.06%

Structure (SMILES): CCOC(=O)c1ccc(C#Cc2ccc3c(c2)C(C)(C)CCS3)nc1 [Tazarotene]
- efficacy: -38.2%

Structure (SMILES): CCN(C1CCOCC1)C2=C(C)C(=CC(=C2)C3=CC=C(CN4CCOCC4)C=C3)C(=O)NC\C5=C(C)\C=C(C)/NC5=O [Tazemetostat]
- efficacy: -59%

Structure (SMILES): F\C1=C\N(C2CCCO2)C(=O)NC1=O (stereo not drawn) [Tegafur]
- efficacy: -8.62%

Structure (SMILES): CC(=O)N[C@H]1[C@H](O[C@@H]2c3ccc(c(Cl)c3)Oc3cc4cc(c3O[C@@H]3O[C@H](CO)[C@@H](O)[C@H](O)[C@H]3NC(=O)CCCCCCCC(C)C)Oc3ccc(cc3Cl)C[C@H]3NC(=O)[C@H](N)c5ccc(O)c(c5)Oc5cc(O)cc(c5)[C@H](NC3=O)C(=O)N[C@H]4C(=O)N[C@H]3C(=O)N[C@@H]2C(=O)N[C@@H](C(=O)O)c2cc(O)cc(O[C@H]4O[C@H](CO)[C@@H](O)[C@H](O)[C@@H]4O)c2-c2cc3ccc2O)O[C@H](CO)[C@@H](O)[C@@H]1O [Teicoplanin]
- efficacy: -14.5%

Structure (SMILES): CCC[C@H](NC(=O)[C@@H]1[C@H]2CCC[C@H]2CN1C(=O)[C@@H](NC(=O)[C@@H](NC(=O)c1cnccn1)C1CCCCC1)C(C)(C)C)C(=O)C(=O)NC1CC1 [Telaprevir (VX-950)]
- efficacy: -39.3%
